Assay type in all cases: cell-based
For assay [1], the target named is T1, 3-oxo-5-alpha-steroid 4-dehydrogenase 2 (Homo sapiens, UniProt P31213).
T1 sequence (P31213 whole entry): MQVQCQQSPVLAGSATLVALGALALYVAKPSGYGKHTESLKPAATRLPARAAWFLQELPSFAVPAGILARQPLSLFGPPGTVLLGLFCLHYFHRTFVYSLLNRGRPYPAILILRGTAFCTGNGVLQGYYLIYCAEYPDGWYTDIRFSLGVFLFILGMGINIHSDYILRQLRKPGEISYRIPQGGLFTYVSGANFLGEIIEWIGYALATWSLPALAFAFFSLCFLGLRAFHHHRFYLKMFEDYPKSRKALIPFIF
The assay is described as follows: Inhibitory concentration against human steroid 5-alpha-reductase 2 receptor expressed in CHO 1829 cells.

For assay [2], the target named is T1, 3-oxo-5-alpha-steroid 4-dehydrogenase 2. In words: Inhibitory concentration against human steroid 5-alpha-reductase 2 receptor expressed in CHO 1829 cells; la= low activity.
Assay [3] concerns the target T2, 3-oxo-5-alpha-steroid 4-dehydrogenase 1 (Homo sapiens, UniProt P18405).
T2 sequence (P18405 whole entry): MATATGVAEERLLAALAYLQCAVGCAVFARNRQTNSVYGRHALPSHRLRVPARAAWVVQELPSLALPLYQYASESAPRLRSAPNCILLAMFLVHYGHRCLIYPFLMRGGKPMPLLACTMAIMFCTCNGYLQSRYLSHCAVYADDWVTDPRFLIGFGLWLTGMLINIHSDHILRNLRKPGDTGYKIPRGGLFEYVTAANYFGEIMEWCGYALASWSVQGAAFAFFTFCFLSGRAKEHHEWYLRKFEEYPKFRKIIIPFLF
In words: Inhibitory concentration against human steroid 5-alpha-reductase I receptor expressed in CHO 1827 cells.

In assay [4] the target is T2, 3-oxo-5-alpha-steroid 4-dehydrogenase 1. The assay is described as follows: Inhibitory concentration against human steroid 5-alpha-reductase I receptor expressed in CHO 1827 cells; la= low activity.

As usually defined, the IC50 is the concentration that gives 50% inhibition. For the molecule `COC(=O)c1cccc(OC(=O)c2ccc3c(c2)CCC2=C(C)C(=O)CCN23)c1`, 467 nM corresponded to half-maximal inhibition in assay [1] (IC50). On to `CC1=C2CCc3cc(C(=O)Oc4ccccc4)ccc3N2CCC1=O`, for which, in assay [1], half-maximal inhibition (IC50) was put at 295 nM.

On to `CCOC(=O)c1ccc2c(c1)CCC1=C(C)C(=O)CCN12`, for which the concentration for half-maximal inhibition (IC50) in assay [1] came out at 4800 nM. Consider `COC(=O)c1ccc2c(c1)CCC1=C(C)C(=O)CCN12`, for which, in assay [1], half-maximal inhibition (IC50) required 2100 nM.

Regarding `CC1=C2CCc3cc(C(=O)OCc4ccccc4)ccc3N2CCC1=O`, it took 9500 nM to reach half-maximal inhibition in assay [1] (IC50). Turning to `CC1=C2CCc3cc(C(=O)Oc4ccc(C(C)(C)C)cc4)ccc3N2CCC1=O`, in assay [2], the IC50 entry is recorded as “Low activity”.

As to `CC1=C2CCc3cc(C(=O)OC(C)C)ccc3N2CCC1=O`, the IC50 in assay [1] is less than 50 nM. With `CC1=C2CCc3cc(C(=O)Oc4ccc(C)cc4)ccc3N2CCC1=O`, the figures for the IC50 in assay [1] and in assay [3] were 553 nM and 102 nM, respectively. For `COC(=O)c1ccc(OC(=O)c2ccc3c(c2)CCC2=C(C)C(=O)CCN23)cc1`, the IC50 was 584 nM in assay [1] and 129 nM in assay [3].

In the case of `CC1=C2CCc3cc(C(=O)NC(C)(C)C)ccc3N2CCC1=O`, the IC50 result in assay [2] and in assay [4] was “Low activity” each time.

Turning to `CC1=C2CCc3cc(C(=O)Oc4ccc(F)cc4)ccc3N2CCC1=O`, the IC50 in assay [1] was 119 nM; in assay [3], 93 nM.

Consider `CC1=C2CCc3cc(C(=O)Oc4ccc(Cl)cc4)ccc3N2CCC1=O`, for which the IC50 in assay [3] was 1400 nM; in assay [2], “Low activity”. For the molecule `CCN(CC)C(=O)c1ccc(OC(=O)c2ccc3c(c2)CCC2=C(C)C(=O)CCN23)cc1`, the IC50 in assay [1] worked out at 372 nM; in assay [3], 463 nM. In the case of `CCOc1ccc(OC(=O)c2ccc3c(c2)CCC2=C(C)C(=O)CCN23)cc1`, the IC50 in assay [1] is 3300 nM; in assay [3], 209 nM. Regarding `CC(=O)Nc1ccc(OC(=O)c2ccc3c(c2)CCC2=C(C)C(=O)CCN23)cc1`, the IC50 in assay [1] is 255 nM; in assay [3], 707 nM. Turning to `COc1ccc(OC(=O)c2ccc3c(c2)CCC2=C(C)C(=O)CCN23)cc1`, the IC50 in assay [1] is 1200 nM; in assay [3], 116 nM. Consider `CCCNC(=O)c1ccc(OC(=O)c2ccc3c(c2)CCC2=C(C)C(=O)CCN23)cc1`, for which the IC50 in assay [1] was found to be 665 nM; in assay [3] it was 268 nM. For the molecule `CC1=C2CCc3cc(C(=O)OCCCO)ccc3N2CCC1=O`, the IC50 was 6990 nM in assay [3] and “Low activity” in assay [2]. Turning to `CC1=C2CCc3cc(C(=O)Oc4ccccc4C(F)(F)F)ccc3N2CCC1=O`, the IC50 in assay [1] came to 368 nM; in assay [3], 42 nM. Turning to `CC1=C2CCc3cc(C(=O)Oc4cccc(F)c4)ccc3N2CCC1=O`, the IC50 in assay [1] was found to be 134 nM; in assay [3] it was 160 nM. For the molecule `CC1=C2CCc3cc(C(=O)Oc4ccc(C(=O)NC(C)(C)C)cc4)ccc3N2CCC1=O`, the IC50 was 225 nM in assay [3] and “Low activity” in assay [2]. As to `CC1=C2CCc3cc(C(=O)Oc4ccc(C(F)(F)F)cc4)ccc3N2CCC1=O`, the IC50 amounted to 1200 nM in assay [1] and 149 nM in assay [3]. With `CC1=C2CCc3cc(C(=O)Oc4ccc(N)cc4)ccc3N2CCC1=O`, the IC50 in assay [1] is 801 nM; in assay [3], 272 nM.

As for `CC1=C2CCc3cc(C(=O)Nc4ccc(C)cc4)ccc3N2CCC1=O`, the IC50 in assay [3] was 1000 nM; in assay [2], “Low activity”. Regarding `CCN(CC)C(=O)c1ccc2c(c1)CCC1=C(C)C(=O)CCN12`, the IC50 entry in assay [2] and in assay [4] was “Low activity” each time. With `CC1=C2CCc3cc(C(=O)Oc4cccc(C(F)(F)F)c4)ccc3N2CCC1=O`, the IC50 in assay [1] came to 1000 nM; in assay [3], 271 nM. Take `CC1=C2CCc3cc(C(=O)OC(C)(C)C)ccc3N2CCC1=O`: the IC50 result in assay [2] is reported as “Low activity”. With `CC1=C2CCc3cc(C(=O)N(C(C)C)C(C)C)ccc3N2CCC1=O`, the IC50 result in assay [2] and in assay [4] was “Low activity” throughout. As to `CC1=C2CCc3cc(C(=O)Oc4ccc(C(N)=O)cc4)ccc3N2CCC1=O`, the IC50 is 308 nM in assay [1] and 361 nM in assay [3].

With `CC1=C2CCc3cc(C(=O)Oc4ccccc4F)ccc3N2CCC1=O`, the half-maximal inhibitory concentration (IC50) in assay [1] stood at 166 nM; in assay [3], 138 nM.

(Values after ChEMBL document CHEMBL1145142, “Synthesis and activity of 8-substituted benzo[c]quinolizin-3-ones as dual inhibitors of human 5alpha-reductases 1 and 2” (Bioorg Med Chem Lett, 2005).)
